Data taken from the supplement of paper PMC11451515.

Tested on: SEM cells
Assay: cell viability relative to DMSO control; higher = less cytotoxic
Settings: 48 h
In short: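 NOMO1 or SEM cells were plated at 500 cells/well and P12-Ichikawa cells at 1000 cells/well in 1536-well plates (5 μl), after each leukemia line had been adapted for at least four passages in each medium. Pin dosing delivered library compounds in DMSO at 11 threefold concentrations, 47 μM to 0.79 nM. CellTiter-Glo One luminescence was read after 48 h at 37°C. Viability is reported as a per-plate percentage of DMSO wells, with cell-free wells as background.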

[1] = HPLM + 10% dialyzed FBS, 0.000781 µM
[2] = HPLM + 10% dialyzed FBS, 0.00234 µM
[3] = HPLM + 10% dialyzed FBS, 0.00702 µM
[4] = HPLM + 10% dialyzed FBS, 0.0211 µM
[5] = HPLM + 10% dialyzed FBS, 0.0632 µM
[6] = HPLM + 10% dialyzed FBS, 0.19 µM
[7] = HPLM + 10% dialyzed FBS, 0.569 µM
[8] = HPLM + 10% dialyzed FBS, 1.71 µM
[9] = HPLM + 10% dialyzed FBS, 5.12 µM
[10] = HPLM + 10% dialyzed FBS, 15.4 µM
[11] = HPLM + 10% dialyzed FBS, 46.1 µM
[12] = RPMI 5 mM glucose + 10% FBS, 0.000781 µM
[13] = RPMI 5 mM glucose + 10% FBS, 0.00234 µM
[14] = RPMI 5 mM glucose + 10% FBS, 0.00702 µM
[15] = RPMI 5 mM glucose + 10% FBS, 0.0211 µM
[16] = RPMI 5 mM glucose + 10% FBS, 0.0632 µM
[17] = RPMI 5 mM glucose + 10% FBS, 0.19 µM
[18] = RPMI 5 mM glucose + 10% FBS, 0.569 µM
[19] = RPMI 5 mM glucose + 10% FBS, 1.71 µM
[20] = RPMI 5 mM glucose + 10% FBS, 5.12 µM
[21] = RPMI 5 mM glucose + 10% FBS, 15.4 µM
[22] = RPMI 5 mM glucose + 10% FBS, 46.1 µM
[23] = RPMI 5 mM glucose + 10% dialyzed FBS, 0.000781 µM
[24] = RPMI 5 mM glucose + 10% dialyzed FBS, 0.00234 µM
[25] = RPMI 5 mM glucose + 10% dialyzed FBS, 0.00702 µM
[26] = RPMI 5 mM glucose + 10% dialyzed FBS, 0.0211 µM
[27] = RPMI 5 mM glucose + 10% dialyzed FBS, 0.0632 µM
[28] = RPMI 5 mM glucose + 10% dialyzed FBS, 0.19 µM
[29] = RPMI 5 mM glucose + 10% dialyzed FBS, 0.569 µM
[30] = RPMI 5 mM glucose + 10% dialyzed FBS, 1.71 µM
[31] = RPMI 5 mM glucose + 10% dialyzed FBS, 5.12 µM
[32] = RPMI 5 mM glucose + 10% dialyzed FBS, 15.4 µM
[33] = RPMI 5 mM glucose + 10% dialyzed FBS, 46.1 µM

| SMILES | cell viability [1] [%] | cell viability [2] [%] | cell viability [3] [%] | cell viability [4] [%] | cell viability [5] [%] | cell viability [6] [%] | cell viability [7] [%] | cell viability [8] [%] | cell viability [9] [%] | cell viability [10] [%] | cell viability [11] [%] | cell viability [12] [%] | cell viability [13] [%] | cell viability [14] [%] | cell viability [15] [%] | cell viability [16] [%] | cell viability [17] [%] | cell viability [18] [%] | cell viability [19] [%] | cell viability [20] [%] | cell viability [21] [%] | cell viability [22] [%] | cell viability [23] [%] | cell viability [24] [%] | cell viability [25] [%] | cell viability [26] [%] | cell viability [27] [%] | cell viability [28] [%] | cell viability [29] [%] | cell viability [30] [%] | cell viability [31] [%] | cell viability [32] [%] | cell viability [33] [%] |
| --- | --- | --- | --- | --- | --- | --- | --- | --- | --- | --- | --- | --- | --- | --- | --- | --- | --- | --- | --- | --- | --- | --- | --- | --- | --- | --- | --- | --- | --- | --- | --- | --- | --- |
| C[C@]12Cc3cn[nH]c3C[C@@H]1CC[C@@H]1[C@@H]2CC[C@@]2(C)[C@H]1CC[C@]2(C)O | 108 | 105 | 105 | 79.7 | 100 | 88.6 | 83.6 | 75.8 | 90.4 | 97.4 | 88.1 | 102 | 108 | 104 | 119 | 116 | 104 | 118 | 104 | 99.4 | 114 | 101 | 103 | 94.9 | 106 | 123 | 110 | 103 | 108 | 107 | 111 | 105 | 95.8 |
| O=C(CS(=O)Cc1ccco1)NC/C=C\COc1cc(CN2CCCCC2)ccn1 (stereo not drawn) | 78.7 | 86.2 | 89.4 | 96.9 | 93.8 | 99.5 | 102 | 96.7 | 102 | 100 | 97.3 | 86 | 91.3 | 90.7 | 87.1 | 96.8 | 95.5 | 107 | 106 | 93.6 | 102 | 103 | 81.5 | 93.7 | 98.4 | 75.9 | 97.1 | 88.4 | 106 | 97.3 | 110 | 99.8 | 93.9 |
| COC(=O)Nc1nc2cc(C(=O)c3ccc(F)cc3)ccc2[nH]1 | 103 | 95.4 | 102 | 91.1 | 98.6 | 97.9 | 51.3 | 40.1 | 33.2 | 26.2 | 47.8 | 95.5 | 105 | 110 | 100 | 92.8 | 95.4 | 77.6 | 40.4 | 32.7 | 28.2 | 52 | 83.6 | 98.8 | 103 | 117 | 115 | 109 | 79.3 | 52 | 45.8 | 37.7 | 52.1 |
| Cc1cc(OCCC[S+](C)(=O)[O-])cc(C)c1-c1cccc(COc2ccc3c(c2)OC[C@H]3CC(=O)O)c1 | 104 | 113 | 110 | 104 | 107 | 101 | 96.5 | 99.9 | 98.3 | 112 | 91.1 | 105 | 104 | 105 | 114 | 103 | 91.8 | 106 | 98.4 | 85.7 | 98.6 | 63.1 | 97.7 | 132 | 109 | 118 | 95.5 | 108 | 109 | 105 | 93.1 | 105 | 65 |
| Cc1nn(C)c(COc2ccc(N3CCN([S+](=O)([O-])N(C)C)CC3)cc2)c1-c1cccc2c(CCCOc3cccc4ccccc34)c(C(=O)O)n(CCN3CCOCC3)c12 | 86 | 82.9 | 102 | 99.8 | 105 | 100 | 101 | 118 | 96.2 | 112 | 51.7 | – | – | – | – | – | – | – | – | – | – | – | 97.3 | 106 | 105 | 106 | 110 | 91.4 | 123 | 114 | 71 | 117 | 21.4 |
| C[C@@H]1CCN(C(=O)CC#N)C[C@@H]1N(C)c1ncnc2[nH]ccc12 | 85 | 92.5 | 81.5 | 85.7 | 91 | 77.4 | 67.4 | 80 | 67 | 73.1 | 78.6 | 96.6 | 99.5 | 79.5 | 97.4 | 103 | 104 | 99.3 | 98.5 | 80 | 90.7 | 95.3 | 112 | 104 | 77.5 | 109 | 105 | 92.4 | 82.1 | 94 | 57.9 | 83.5 | 88.4 |
| Cc1ccc(C(=O)Nc2cccc(C(F)(F)F)c2)cc1-c1ccc2nc(NCCN3CCOCC3)ncc2c1 | 115 | 118 | 118 | 122 | 107 | 109 | 114 | 101 | 51.3 | 31.6 | 8.49 | 105 | 113 | 112 | 125 | 116 | 114 | 110 | 103 | 41.6 | 15.7 | 7.56 | 109 | 101 | 94.5 | 97 | 124 | 92.8 | 117 | 97.3 | 35.8 | 15.9 | 6.55 |
| CC(C)=CCC/C(C)=C/CC/C(C)=C/CSc1ccccc1C(=O)O | 97.5 | 116 | 111 | 97.3 | 93.2 | 81.2 | 80 | 67.3 | 58.3 | 30.3 | 8.4 | 118 | 124 | 111 | 119 | 117 | 106 | 96.6 | 71.8 | 62.4 | 22.3 | 2.67 | 94.6 | 105 | 84.7 | 106 | 97.8 | 99.1 | 74.8 | 71.2 | 62.5 | 33.8 | 8.59 |
